Data from patent publication US12662509B2, “Inhibitors of 17β-HSD7 and uses thereof” (UNIVERSITÉ LAVAL, priority 2021, dated 2026).

How the values were obtained:
[1] = test system: human MCF-7 breast tumors; experiment: MCF-7 xenograft tumor growth in OVX nude mice; format: in vivo; conditions: for growth of human MCF-7 breast tumors, % of initial growth: OVX nude mice, INH7 groups 5 mg/kg/day + E1 0.1 μg/mice/day, E1, E2 groups 0.1 μg/mice/day
Text: FIG. 4—is an illustration of the effect of various inhibitors of 17 β-HSD1 (INH7-10 and INH7-464) on the growth of human MCF-7 breast tumors in nude mice over a period of 22 days; illustration of the regression of MCF-7 xenograft tumor growth in OVX nude mice (cf. Table 1). The growth regression curves represent the decrease in tumor volume in response to INH7 (INH7-10 and INH7-464) treatment (Groups 4 and 5). […] Tumor volume=0.52×(length×width^2). Statistical significance by one-way ANOVA assay is shown by **P<0.01.
(§1) Female athymic nude mice (4 weeks) were ovariectomized under isoflurane-induced anesthesia. One week after ovariectomy (OVX), 5×10^6 MCF-7 cells or 10×10^6 T47D cells suspended in a […] mixture of Matrigel (BD)/culture medium (50:50) were administered by s.c. injection on both side of each mice. All mice were supplemented by daily s.c. injection 0.1 μg Estradiol (E2) for 5 weeks. […] The animals were euthanized on day 23, followed by the collection of tumor specimens and blood samples. The estrogen-sensitive organs (uterus and vagina), liver and kidney were removed and excised of fat and weighed. Tumor specimens were photographed and weighed.

human T47D breast tumors = experiment: T47D xenograft tumor growth in OVX nude mice; format: in vivo; conditions: for growth of human T47D breast tumors, % of initial growth: OVX nude mice, INH7 groups 5 mg/kg/day + E1 0.1 μg/mice/day, E1, E2 groups 0.1 μg/mice/day
Text: FIG. 5—is an illustration of the effect of various inhibitors of 17 β-HSD1 (INH7-10 and INH7-464) on the growth of human T47D breast tumors in nude mice over a period of 22 days; illustration of the regression of T47D xenograft tumor growth in OVX nude mice by (cf. Table 2). The growth regression curves represent the decrease in tumor volume in response to INH7 (INH7-10 and INH7-464) treatment (Groups 4 and 5). […] Statistical significance by one-way ANOVA assay is shown by **P<0.01.
as §1

[2] = Body weight of nude mice during treatment of MCF-7 and T47D tumors; format: in vivo; conditions: MCF-7 and T47D tumor-bearing nude mice; 22 days; 5 mg/kg/day
Text: FIG. 6A—is an illustration of the body weight of the nude mice following treatment of human MCF-7 and T47D breast tumors with INH7-47 over a period of 22 days. […] (FIG. 6B) is an illustration of the body weight of the OVX nude mice (mice having undergone an ovariectomy) over a period of 22 days. The OVX mice were not treated with an INH7 inhibitor, but instead were subjected to daily subcutaneous (s.c.) injection with vehicle (0.4% methylcellulose/DMSO (92/8)).
as §1

MCF-7 cell proliferation = experiment: Effect of INH7 inhibitors on MCF-7 cell proliferation (DNA synthesis, 144 hours, E1 0.1 nM); format: cell-based, human; conditions: 2 μM
Method: FIG. 1—is an illustration of the effect of various inhibitors of […] (INH7-10, INH7-81 and INH7-464) on MCF-7 cell proliferation over a period of 144 hours.
The effects of various inhibitors, including INH7-464, on MCF-7 cell proliferation over a period of 144 hours is illustrated in FIG. 1. The hormone source E1 (Estrone) was provided at 0.1 nM. Data are reported as % of DNA synthesis vs Control (0.1 nM E1) (100%). Quadruple wells were used for each condition and repeated in three independent experiments. Error bars represent SD. *, P<0.05 vs control; **, P<0.001 vs. control by Student's test.

[3] = Cytotoxicity on the MCF-10A cell line; format: cell-based; conditions: human, MCF-10A cells; incubation time 3 days; 1 nM-100 μM
Method: (§2) FIG. 9A—is an illustration of the cytotoxicity of the INH7-464 inhibitor on the MCF-7 cell line. FIG. 9B—is an illustration of the cytotoxicity of the INH7-464 inhibitor on the MCF-10A cell line. Paclitaxel (PTX) was used as the reference compound and was dissolved in DMSO for the stock solutions. The stock solutions were subsequently diluted at multiple concentrations with culture media in order to obtain the final desired concentrations ranging between 1 nM-100 μM. The incubation time was 3 days. The IC50 values (at which 50% of cell growth inhibition—concentration that inhibits 50% of cell proliferation—is observed) were calculated using an iterative least square regression method (cf. Table 3). The cytotoxicity values for the INH7-464 inhibitor were lower than those for Paclitaxel (PTX) in the different cell lines (cf. Table 3).
(§3) Paclitaxel (PTX) was used as a reference compound and was dissolved in DMSO for the stock solutions. The stock solutions were subsequently diluted at multiple concentrations with culture media in order to obtain the final desired concentrations ranging from 1 nM-100 μM. The incubation time was 3 days. The IC50 values (at which 50% of cell growth inhibition—concentration that inhibits 50% of cell proliferation—is observed) were calculated using an iterative least square regression method.

[4] = Cytotoxicity on the MCF-7 cell line; format: cell-based; conditions: human, MCF-7 cells; incubation time 3 days; 1 nM-100 μM
Method: as §2, §3

[5] = Toxicity of INH7-464 in mice, weekly s.c. injection over 21 days; format: in vivo
Method: FIG. 10—is an illustration of the toxicity of the INH7-464 inhibitor in mice (8 mice/group) at various concentrations over a period of 21 days. Control Group: 0.4% methylcellulose/DMSO (92/8). INH7-464 group: Day 1: 20 mg/kg (INH7-464); Day 8: 30 mg/kg (INH7-464); Day 15: 60 mg/kg (INH7-464). […] Statistical significance by T-test is shown by ***P<0.001.
FIG. 11—is an illustration of the effect (toxicity) of the INH7-464 inhibitor on the liver, kidney, ovary and uterus weight, as per the toxicity experiment illustrated in FIG. 10.
INH7-464 was administered by s.c. injection. INH7-464 was first dissolved in DMSO, followed by the addition of 0.4% methylcellulose to obtain a final 8% concentration of co-solvent (methylcellulose/DMSO (92/8). The injected volume was 0.1 mL (s.c.). […] All the mice were weighed every day. The liver, kidney, ovaries, and uterus were collected and weighed following 3 weeks of treatment.

Row | Compound | growth of human MCF-7 breast tumors, % of initial growth ([1]; day 0) [%] | growth of human MCF-7 breast tumors, % of initial growth ([1]; day 5) [%] | growth of human MCF-7 breast tumors, % of initial growth ([1]; day 9) [%] | growth of human MCF-7 breast tumors, % of initial growth ([1]; day 12) [%] | growth of human MCF-7 breast tumors, % of initial growth ([1]; day 13) [%] | growth of human MCF-7 breast tumors, % of initial growth ([1]; day 19) [%] | growth of human MCF-7 breast tumors, % of initial growth ([1]; day 22) [%] | growth of human T47D breast tumors, % of initial growth (human T47D breast tumors; day 0) [%] | growth of human T47D breast tumors, % of initial growth (human T47D breast tumors; day 5) [%] | growth of human T47D breast tumors, % of initial growth (human T47D breast tumors; day 9) [%] | growth of human T47D breast tumors, % of initial growth (human T47D breast tumors; day 12) [%] | growth of human T47D breast tumors, % of initial growth (human T47D breast tumors; day 15) [%] | growth of human T47D breast tumors, % of initial growth (human T47D breast tumors; day 19) [%] | growth of human T47D breast tumors, % of initial growth (human T47D breast tumors; day 22) [%] | IC50 at 3 days [3] [µM] | IC50 at 3 days [4] [µM] | other results
1 | C[C@]12CC[C@@H]3c4ccc(O)cc4CC[C@H]3[C@@H]1CCC2=O [E1, Estrone] | 100 | 102.886 | 100.227 | 109.033 | 95.3089 | 100.249 | 102.648 | 100 | 93.64 | 113.43 | 112.0519 | 122.0034 | 112.9356 | 112.831 | – | – | –
2 | C[C@]12CC[C@@H]3c4ccc(O)cc4CC[C@H]3[C@@H]1CC[C@@H]2O [E2, Estradiol] | 100 | 82.8535 | 97.2662 | 131.541 | 123.252 | 108.413 | 120.974 | 100 | 112.55 | 120.84 | 121.306 | 150.417 | 144.117 | 138.919 | – | – | –
3 | CCCCCCCCCN1C[C@]2(CC[C@H]3[C@@H]4CC[C@H]5NC(=O)CC[C@]5(C)[C@H]4CC[C@@]32C)OC1=O [INH7-464, (4aR,4bS,6aS,7R,9aS,9bR,11aR)-4a,6a-dimethyl-3′-nonyltetradecahydrospiro [indeno[5,4-f]quinoline-7,5′-oxazolidine]-2,2′(1H)-dione] | 100 | 88.1406 | 81.8741 | 84.2617 | 66.5956 | 67.8843 | 59.6876 | 100 | 100.51 | 78.1158 | 76.9139 | 63.5165 | 67.9195 | 50.9558 | 2.67 | 0.582 | body weight of the nude mice [2]: absence of weight loss; inhibition of MCF-7 cell proliferation (% of DNA synthesis vs control 0.1 nM E1) (MCF-7 cell proliferation): significant inhibition at 2 μM; tolerability after weekly subcutaneous injection ([5]; 8/group, 20-60 mg/kg weekly s.c. for 3 weeks (21 days)): very well tolerated; apparent toxicity ([5]; 20-60 mg/kg weekly (s.c.)): no apparent toxicity; weight changes of liver, kidney, ovary and uterus ([5]; after 3 weeks of weekly s.c. 20, 30 and 60 mg/kg): no significant weight changes; decrease in the tumor size relative to the control (E1) ([1]; MCF-7 xenograft model, day 22, 5 mg/kg/day): 60%±5%; decrease in the tumor size relative to the control (E1) (human T47D breast tumors; T47D xenograft model, day 22, 5 mg/kg/day): 51%±5%
4 | CC(=O)O[C@H]1C(=O)[C@@]2(C)[C@H]([C@H](OC(=O)c3ccccc3)[C@]3(O)C[C@H](OC(=O)[C@H](O)[C@@H](NC(=O)c4ccccc4)c4ccccc4)C(C)=C1C3(C)C)[C@]1(OC(C)=O)CO[C@@H]1C[C@@H]2O [Paclitaxel (PTX), Paclitaxel] | – | – | – | – | – | – | – | – | – | – | – | – | – | – | 0.000637 | 0.00308 | –
